Assay results as given in US10851099B2, “Dipeptide piperidine derivatives” (OncoArendi Therapeutics S.A., priority 2018, dated 2020).
Counter-ions that a name gives are not always drawn.

These compounds were tested against T1, recombinant human arginase 1 (Homo sapiens, UniProt P05089) (assay: Human arginase inhibition assay (colorimetric urea detection), arginase 1). Conditions: IC50 class, hydrochloride salts, 1 h at 37° C., pH 7.4, 10 mM L-arginine, 200 μM MnCl2, read-out: Activity Class (ARG I).
T1 construct: made in house; host or cells: E. coli
T1 sequence (P05089 1-322): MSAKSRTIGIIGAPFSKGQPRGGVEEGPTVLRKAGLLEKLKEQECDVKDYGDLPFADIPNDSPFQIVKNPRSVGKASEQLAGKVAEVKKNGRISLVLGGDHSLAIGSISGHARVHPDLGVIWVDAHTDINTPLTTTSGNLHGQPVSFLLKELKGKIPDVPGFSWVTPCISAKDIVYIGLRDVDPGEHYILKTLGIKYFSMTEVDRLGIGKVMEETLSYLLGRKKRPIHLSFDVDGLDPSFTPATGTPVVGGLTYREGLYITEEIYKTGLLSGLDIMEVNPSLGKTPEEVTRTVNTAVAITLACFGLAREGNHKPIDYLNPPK
Format: biochemical
Experimental: (§1) The inhibitory activities of the compounds of the invention were assessed using recombinant human arginase 1 and 2. Both enzymes were biosynthesized using a prokaryotic expression system (E. coli) and purified by fast protein liquid chromatography (FPLC). The compounds were screened in 96-well plates at the total reaction volume of 100 μL. Briefly, recombinant enzymes were incubated with the tested compounds for 1 h at 37° C. in the reaction buffer (100 mM sodium phosphate buffer, 130 mM NaCl, 1 mg/mL BSA, pH 7.4) containing substrate (10 mM L-arginine hydrochloride) and cofactor (200 μM MnCl2). The assay is based on the detection of urea, which is generated during the conversion of L-arginine into L-ornithine catalyzed by ARG1 or ARG2. The colorimetrically detectable product was developed by adding a mixture of reagent A (4 mM oPA, 50 mM boric acid, 1 M sulfuric acid, 0.03% Brij-35) and reagent B (4 mM NED, 50 mM boric acid, 1 M sulfuric acid, 0.03% Brij-35) in equal proportions. The absorbance for each well was measured at 515 nm and the enzyme inhibition was calculated. The urea production in the absence of any tested compound was considered as maximal enzyme activity. The absorbance at the absence of arginase (background) was subtracted from all the values. Normalized values were analyzed using GraphPad Prism 7.0 software by plotting inhibition curves and determining the IC50 values.
(§2) The inhibitory activity toward humane arginase 1 of the hydrochloride salts of the exemplary compounds according to the invention is presented in Table 5.

| IC50 | SMILES |
| --- | --- |
| 500 to 999 nM | CC(C)C[C@H](N)C(=O)N1C[C@@H](CCB(O)O)C[C@](N)(C(=O)O)C1 [Example 8, (3R,5S)-1-(L-Leucyl)-3-amino-5-(2-boronoethyl)piperidine-3-carboxylic acid dihydrochloride] |
| > 10000 nM | COC(=O)[C@@]1(N)C[C@H](CCB(O)O)CN(C(=O)[C@H](C)N)C1 [Example 28, (2-((3S,5R)-1-(L-Alanyl)-5-amino-5-(methoxycarbonyl)piperidin-3-yl)ethyl) boronic acid dihydrochloride] |
| 250 to 499 nM | C[C@@H]1N(C(=O)[C@@H](N)CCCNC(=N)N)C[C@@H](CCB(O)O)C[C@]1(N)C(=O)O [Example 31, (2S,3R,5S)-1-(L-Arginyl)-3-amino-5-(2-boronoethyl)-2-methylpiperidine-3-carboxylic acid trihydrochloride] |
| 250 to 499 nM | CCC[C@H](N)C(=O)N1C[C@@H](CCB(O)O)C[C@](N)(C(=O)O)C1 [Example 25, (3R,5S)-3-Amino-1-((S)-2-aminopentanoyl)-5-(2-boronoethyl)piperidine-3-carboxylic acid dihydrochloride] |
| 250 to 499 nM | C[C@@H](O)[C@H](N)C(=O)N1C[C@@H](CCB(O)O)C[C@](N)(C(=O)O)C1 [Example 12, (3R,5S)-1-(L-Threonyl)-3-amino-5-(2-boronoethyl)piperidine-3-carboxylic acid dihydrochloride] |
| > 10000 nM | C[C@H](N)C(=O)N1C[C@@H](CCB(O)O)C[C@@](N)(C(=O)O)C1 [Example 33, (3S,5S)-1-(L-Alanyl)-3-amino-5-(2-boronoethyl)piperidine-3-carboxylic acid dihydrochloride] |
| 250 to 499 nM | N[C@@H](Cc1ccc(O)cc1)C(=O)N1C[C@@H](CCB(O)O)C[C@](N)(C(=O)O)C1 [Example 10, (3R,5S)-1-(L-Tyrosyl)-3-amino-5-(2-boronoethyl)piperidine-3-carboxylic acid dihydrochloride] |
| 1 to 249 nM | NCC(=O)N1C[C@@H](CCB(O)O)C[C@](N)(C(=O)O)C1 [Example 3, (3R,5S)-3-Amino-5-(2-boronoethyl)-1-glycylpiperidine-3-carboxylic acid dihydrochloride] |
| 1 to 249 nM | N[C@@H](CO)C(=O)N1C[C@@H](CCB(O)O)C[C@](N)(C(=O)O)C1 [Example 6, (3R,5S)-1-(L-Seryl)-3-amino-5-(2-boronoethyl)piperidine-3-carboxylic acid dihydrochloride] |
| 250 to 499 nM | N[C@]1(C(=O)O)C[C@H](CCB(O)O)CN(C(=O)[C@@H]2CCCN2)C1 [Example 4, (3R,5S)-1-(L-Prolyl)-3-amino-5-(2-boronoethyl)piperidine-3-carboxylic acid dihydrochloride] |
| 250 to 499 nM | CC(C)[C@H](N)C(=O)N1C[C@@H](CCB(O)O)C[C@](N)(C(=O)O)C1 [Example 5, (3R,5S)-1-(L-Valyl)-3-amino-5-(2-boronoethyl)piperidine-3-carboxylic acid dihydrochloride] |
| 1 to 249 nM | N=C(N)NCCC[C@H](N)C(=O)N1C[C@@H](CCB(O)O)C[C@](N)(C(=O)O)C1 [Example 20, (3R,5S)-1-(L-Arginyl)-3-amino-5-(2-boronoethyl)piperidine-3-carboxylic acid trihydrochloride] |
| 500 to 999 nM | N[C@@H](CCC(=O)O)C(=O)N1C[C@@H](CCB(O)O)C[C@](N)(C(=O)O)C1 [Example 15, (3R,5S)-1-(L-Glutamyl)-3-amino-5-(2-boronoethyl)piperidine-3-carboxylic acid dihydrochloride] |
| 1 to 249 nM | N=C(N)NCCC[C@H](N)C(=O)N1C[C@@H](CCB2OC(=O)CC(CC(=O)O)(C(=O)O)O2)C[C@](N)(C(=O)O)C1 (stereo partly drawn) [Example 29, (3R,5S)-1-(L-Arginyl)-3-amino-5-(2-(4-carboxy-4-(carboxymethyl)-6-oxo-1,3,2-dioxaborinan-2-yl)ethyl)piperidine-3-carboxylic acid trihydrochloride] |
| 250 to 499 nM | CSCC[C@H](N)C(=O)N1C[C@@H](CCB(O)O)C[C@](N)(C(=O)O)C1 [Example 17, (3R,5S)-1-(L-Methionyl)-3-amino-5-(2-boronoethyl)piperidine-3-carboxylic acid dihydrochloride] |
| 250 to 499 nM | NC(=O)CC[C@H](N)C(=O)N1C[C@@H](CCB(O)O)C[C@](N)(C(=O)O)C1 [Example 16, (3R,5S)-1-(L-Glutaminyl)-3-amino-5-(2-boronoethyl)piperidine-3-carboxylic acid dihydrochloride] |
| 250 to 499 nM | N[C@@H](Cc1c[nH]c2ccccc12)C(=O)N1C[C@@H](CCB(O)O)C[C@](N)(C(=O)O)C1 [Example 18, (3R,5S)-1-(L-Tryptophyl)-3-amino-5-(2-boronoethyl)piperidine-3-carboxylic acid dihydrochloride] |
| 1000 to 10000 nM | C[C@@H](N)C(=O)N1C[C@@H](CCB(O)O)C[C@](N)(C(=O)O)C1 [Example 23, (3R,5S)-1-(D-Alanyl)-3-amino-5-(2-boronoethyl)piperidine-3-carboxylic acid dihydrochloride] |
| 500 to 999 nM | Cn1cc(C[C@@H](N)C(=O)N2C[C@@H](CCB(O)O)C[C@](N)(C(=O)O)C2)c2ccccc21 [Example 24, (3R,5S)-3-amino-5-(2-boronoethyl)-1-(1-methyl-D-tryptophyl)piperidine-3-carboxylic acid dihydrochloride] |
| 500 to 999 nM | N[C@@H](CC(=O)O)C(=O)N1C[C@@H](CCB(O)O)C[C@](N)(C(=O)O)C1 [Example 14, (3R,5S)-1-(L-Aspartyl)-3-amino-5-(2-boronoethyl)piperidine-3-carboxylic acid dihydrochloride] |
| 250 to 499 nM | CNCC(=O)N1C[C@@H](CCB(O)O)C[C@](N)(C(=O)O)C1 [Example 27, (3R,5S)-3-Amino-5-(2-boronoethyl)-1-(methylglycyl)piperidine-3-carboxylic acid dihydrochloride] |
| 500 to 999 nM | CC[C@H](C)[C@H](N)C(=O)N1C[C@@H](CCB(O)O)C[C@](N)(C(=O)O)C1 [Example 9, (3R,5S)-1-(L-Isoleucyl)-3-amino-5-(2-boronoethyl)piperidine-3-carboxylic acid dihydrochloride] |
| 500 to 999 nM | N[C@@H](CS)C(=O)N1C[C@@H](CCB(O)O)C[C@](N)(C(=O)O)C1 [Example 19, (3R,5S)-1-(L-Cysteinyl)-3-amino-5-(2-boronoethyl)piperidine-3-carboxylic acid dihydrochloride] |
| > 10000 nM | C[C@H](N)C(=O)N1C[C@H](CCB(O)O)C[C@@](N)(C(=O)O)C1 [Example 2, (3S,5R)-1-(L-Alanyl)-3-amino-5-(2-boronoethyl)piperidine-3-carboxylic acid dihydrochloride] |
| 250 to 499 nM | NC(=O)C[C@H](N)C(=O)N1C[C@@H](CCB(O)O)C[C@](N)(C(=O)O)C1 [Example 26, (3R,5S)-1-(L-Asparaginyl)-3-amino-5-(2-boronoethyl)piperidine-3-carboxylic acid dihydrochloride] |
| 250 to 499 nM | NC(=O)NCCC[C@H](N)C(=O)N1C[C@@H](CCB(O)O)C[C@](N)(C(=O)O)C1 [Example 21, (3R,5S)-3-Amino-1-((S)-2-amino-5-ureidopentanoyl)-5-(2-boronoethyl) piperidine-3-carboxylic acid dihydrochloride] |
| 250 to 499 nM | NCCC[C@H](N)C(=O)N1C[C@@H](CCB(O)O)C[C@](N)(C(=O)O)C1 [Example 22, (3R,5S)-3-Amino-5-(2-boronoethyl)-1-((S)-2,5-diaminopentanoyl)piperidine-3-carboxylic acid trihydrochloride] |
| > 10000 nM | C[C@H](N)C(=O)N1C[C@H](CCB(O)O)C[C@](N)(C(=O)O)C1 [Example 32, (3R,5R)-1-(L-Alanyl)-3-amino-5-(2-boronoethyl)piperidine-3-carboxylic acid dihydrochloride] |

Each compound was assayed against T2, recombinant human arginase 2 (Homo sapiens, UniProt P78540) (assay: Human arginase inhibition assay (colorimetric urea detection), arginase 2). Conditions: IC50 class, hydrochloride salts, 1 h at 37° C., pH 7.4, 10 mM L-arginine, 200 μM MnCl2, read-out: Activity Class (ARG II).
T2 construct: made in house; host or cells: E. coli
T2 sequence (P78540 23-354): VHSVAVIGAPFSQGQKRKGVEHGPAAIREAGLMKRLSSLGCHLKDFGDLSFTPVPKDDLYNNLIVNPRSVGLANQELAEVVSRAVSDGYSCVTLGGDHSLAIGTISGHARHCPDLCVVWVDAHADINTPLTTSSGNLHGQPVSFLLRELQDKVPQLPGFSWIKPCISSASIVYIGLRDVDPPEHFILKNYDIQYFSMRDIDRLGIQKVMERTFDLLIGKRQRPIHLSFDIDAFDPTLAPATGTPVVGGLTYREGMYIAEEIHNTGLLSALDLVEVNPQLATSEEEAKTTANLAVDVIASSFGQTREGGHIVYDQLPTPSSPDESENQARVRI
Format: biochemical
Experimental: as §1, §2
The inhibitory activity toward humane arginase 2 of the hydrochloride salts of the selected exemplary compounds according to the invention is presented in Table 6.

| IC50 | SMILES |
| --- | --- |
| 500 to 999 nM | NCC(=O)N1C[C@@H](CCB(O)O)C[C@](N)(C(=O)O)C1 [Example 3, (3R,5S)-3-Amino-5-(2-boronoethyl)-1-glycylpiperidine-3-carboxylic acid dihydrochloride] |
| 500 to 999 nM | N[C@@H](CO)C(=O)N1C[C@@H](CCB(O)O)C[C@](N)(C(=O)O)C1 [Example 6, (3R,5S)-1-(L-Seryl)-3-amino-5-(2-boronoethyl)piperidine-3-carboxylic acid dihydrochloride] |
| 250 to 499 nM | N=C(N)NCCC[C@H](N)C(=O)N1C[C@@H](CCB(O)O)C[C@](N)(C(=O)O)C1 [Example 20, (3R,5S)-1-(L-Arginyl)-3-amino-5-(2-boronoethyl)piperidine-3-carboxylic acid trihydrochloride] |
